Assay results published in patent US20180110754A1, “CENICRIVIROC FOR THE TREATMENT OF FIBROSIS” (Tobira Therapeutics, Inc., priority 2015, published 2018).

What was measured:
[1] = Study 202: ECG abnormalities and vital signs; format: in vivo, human; details: for HR Abnormally high, n subjects / HR Abnormally low, n subjects / PR Abnormally high, n subjects / QRS Abnormally high, n subjects / QRS Abnormally low, n subjects / QTcB interval Borderline (450-480 ms), n subjects / QTcB interval Increase by >30-60 ms, n subjects / QTcB interval Increase by >60 ms, n subjects / QTcB interval Pathologically prolonged, n subjects / QTcB interval Prolonged, n subjects / QTcF interval Borderline (450-480 ms), n subjects / QTcF interval Increase by >30-60 ms, n subjects / QTcF interval Increase by >60 ms, n subjects / QTcF interval Pathologically prolonged, n subjects / QTcF interval Prolonged, n subjects: through Week 48
[2] = known short half-life; cited from earlier work
mouse monocytes = experiment: CCL2-induced chemotaxis ex vivo on mouse monocytes; format: cell-based
Procedure: Monocyte/macrophage recruitment was assessed in vivo in a mouse model of thioglycollate-induced peritonitis. CCL2-induced chemotaxis was evaluated ex vivo on mouse monocytes. […] Study assessments included body and liver/kidney weight, liver function test, liver/kidney morphology and collagen deposition, fibrogenic gene and protein expression, and pharmacokinetic analyses.

[3] = Study 202: treatment-emergent laboratory abnormalities (DAIDS grades; CPK, ALT, AST, bilirubin); format: in vivo; details: All CVC (N = 115), EFV (N = 28)
From the text: The number of subjects with graded treatment-emergent laboratory abnormalities in selected liver parameters of interest is shown in Table 34. No Grade 4 ALT or AST elevations were observed. Except for one Grade 3 AST elevation, all ALT and AST elevations were Grade 1 or Grade 2. […] All abnormalities in bilirubin were Grade 1 or Grade 2. […]

[4] = All CVC (N = 115), EFV (N = 28)

For `CCCCOCCOc1ccc(-c2ccc3c(c2)/C=C(/C(=O)Nc2ccc([S@@+]([O-])Cc4cncn4CCC)cc2)CCCN3CC(C)C)cc1` [CVC, (S)-8-[4-(2-Butoxyethoxy)phenyl]-1-isobutyl-N-(4-{[(1-propyl-1H-imidazol-5-yl)methyl]sulfinyl}phenyl)-1,2,3,4-tetrahydro-1-benzazocine-5-carboxamide], the “HR Abnormally high, n subjects” value [1, 4] was 0, the “HR Abnormally low, n subjects” value [1, 4] was 0 and the “PR Abnormally high, n subjects” value [1, 4] was 3. For the same compound, the “QRS Abnormally high, n subjects” value [1, 4] was 1, the “QRS Abnormally low, n subjects” value [1, 4] was 0 and the “QTcB interval Borderline (450-480 ms), n subjects” value (“QTcB interval Borderline” for short) [1, 4] was 6. The “QTcB interval Increase by >30-60 ms, n subjects” value [1, 4] was 9, the “QTcB interval Increase by >60 ms, n subjects” value [1, 4] was 1 and the “QTcB interval Pathologically prolonged, n subjects” value [1, 4] was 0. For the same compound, the “QTcB interval Prolonged, n subjects” value [1, 4] was 0, the “QTcF interval Borderline (450-480 ms), n subjects” value (shortened to “QTcF interval Borderline”) [1, 4] was 2 and the “QTcF interval Increase by >30-60 ms, n subjects” value [1, 4] was 7. The “QTcF interval Increase by >60 ms, n subjects” value [1, 4] was 1, the “QTcF interval Pathologically prolonged, n subjects” value [1, 4] was 0 and the “QTcF interval Prolonged, n subjects” value [1, 4] was 0. For the same compound, the “HR Abnormally high, n subjects” value ([1]; CVC 100 mg (N = 58)) was 0, the “HR Abnormally low, n subjects” value ([1]; CVC 100 mg (N = 58)) was 0 and the “PR Abnormally high, n subjects” value ([1]; CVC 100 mg (N = 58)) was 2. The “QRS Abnormally high, n subjects” value ([1]; CVC 100 mg (N = 58)) was 1, the “QRS Abnormally low, n subjects” value ([1]; CVC 100 mg (N = 58)) was 0 and the “QTcB interval Borderline” value ([1]; CVC 100 mg (N = 58)) was 4. For the same compound, the “QTcB interval Increase by >30-60 ms, n subjects” value ([1]; CVC 100 mg (N = 58)) was 6, the “QTcB interval Increase by >60 ms, n subjects” value ([1]; CVC 100 mg (N = 58)) was 1 and the “QTcB interval Pathologically prolonged, n subjects” value ([1]; CVC 100 mg (N = 58)) was 0. The “QTcB interval Prolonged, n subjects” value ([1]; CVC 100 mg (N = 58)) was 0, the “QTcF interval Borderline” value ([1]; CVC 100 mg (N = 58)) was 1 and the “QTcF interval Increase by >30-60 ms, n subjects” value ([1]; CVC 100 mg (N = 58)) was 4. The “QTcF interval Increase by >60 ms, n subjects” value ([1]; CVC 100 mg (N = 58)) was 1, the “QTcF interval Pathologically prolonged, n subjects” value ([1]; CVC 100 mg (N = 58)) was 0 and the “QTcF interval Prolonged, n subjects” value ([1]; CVC 100 mg (N = 58)) was 0. For the same compound, the “Subjects with QTc increase of >60 msec” value ([1]; CVC 100 mg arm) was 1 subject, the “HR Abnormally high, n subjects” value ([1]; CVC 200 mg (N = 57)) was 0 and the “HR Abnormally low, n subjects” value ([1]; CVC 200 mg (N = 57)) was 0. For the same compound, the “PR Abnormally high, n subjects” value ([1]; CVC 200 mg (N = 57)) was 1 (2%), the “QRS Abnormally high, n subjects” value ([1]; CVC 200 mg (N = 57)) was 0 and the “QRS Abnormally low, n subjects” value ([1]; CVC 200 mg (N = 57)) was 0. The “QTcB interval Borderline” value ([1]; CVC 200 mg (N = 57)) was 2 (4%), the “QTcB interval Increase by >30-60 ms, n subjects” value ([1]; CVC 200 mg (N = 57)) was 3 (6%) and the “QTcB interval Increase by >60 ms, n subjects” value ([1]; CVC 200 mg (N = 57)) was 0. For the same compound, the “QTcB interval Pathologically prolonged, n subjects” value ([1]; CVC 200 mg (N = 57)) was 0, the “QTcB interval Prolonged, n subjects” value ([1]; CVC 200 mg (N = 57)) was 0 and the “QTcF interval Borderline” value ([1]; CVC 200 mg (N = 57)) was 1 (2%). For the same compound, the “QTcF interval Increase by >30-60 ms, n subjects” value ([1]; CVC 200 mg (N = 57)) was 3 (6%), the “QTcF interval Increase by >60 ms, n subjects” value ([1]; CVC 200 mg (N = 57)) was 0 and the “QTcF interval Pathologically prolonged, n subjects” value ([1]; CVC 200 mg (N = 57)) was 0. For the same compound, the “QTcF interval Prolonged, n subjects” value ([1]; CVC 200 mg (N = 57)) was 0, the Half-life in mice [2] was roughly 2 h and the “Monocyte migration ex vivo (CCL2-induced chemotaxis)” value (mouse monocytes) was “reduced”. For the same compound, the “Any graded (Grade 1-4) treatment-emergent laboratory abnormality, n subjects” value [3] was 106, the “Laboratory abnormality, worst Grade 1, n subjects” value [3] was 37 and the “Laboratory abnormality, worst Grade 2, n subjects” value [3] was 50. The “Laboratory abnormality, worst Grade 3 (Any Grade 3 abnormality), n subjects” value [3] was 13, the “Laboratory abnormality, worst Grade 4 (Any Grade 4 abnormality), n subjects” value [3] was 6 and the “ALT, worst Grade 1, n subjects” value ([3]; through Week 48) was 10. The “ALT, worst Grade 2, n subjects” value ([3]; through Week 48) was 5, the “ALT, worst Grade 3, n subjects” value ([3]; through Week 48) was 0 and the “ALT, worst Grade 4, n subjects” value ([3]; through Week 48) was 0. For the same compound, the “AST, worst Grade 1, n subjects” value ([3]; through Week 48) was 14, the “AST, worst Grade 2, n subjects” value ([3]; through Week 48) was 6 and the “AST, worst Grade 3, n subjects” value ([3]; through Week 48) was 1. For the same compound, the “AST, worst Grade 4, n subjects” value ([3]; through Week 48) was 0, the “Alanine aminotransferase (ALT) abnormality, any grade, n subjects” value ([3]; through Week 48) was 15 and the “Any Grade 3 or Grade 4 laboratory abnormality, n subjects” value ([3]; through Week 48) was 19. The “Aspartate aminotransferase (AST) abnormality, any grade, n subjects” value ([3]; through Week 48) was 21, the “Aspartate aminotransferase (AST) increased (Grade 3 or 4), n subjects” value ([3]; through Week 48) was 1 and the “Bilirubin abnormality, any grade, n subjects” value ([3]; through Week 48) was 7. For the same compound, the “Bilirubin, worst Grade 1, n subjects” value ([3]; through Week 48) was 3, the “Bilirubin, worst Grade 2, n subjects” value ([3]; through Week 48) was 4 and the “Bilirubin, worst Grade 3, n subjects” value ([3]; through Week 48) was 0. The “Bilirubin, worst Grade 4, n subjects” value ([3]; through Week 48) was 0, the “CPK increased, worst Grade 3, n subjects” value ([3]; through Week 48) was 8 and the “CPK increased, worst Grade 4, n subjects” value ([3]; through Week 48) was 4. For the same compound, the “Creatine phosphokinase (CPK) increased (Grade 3 or 4), n subjects” value ([3]; through Week 48) was 12, the “Fibrinogen decreased (Grade 3 or 4), n subjects” value ([3]; through Week 48) was 2 and the “Fibrinogen decreased, worst Grade 3, n subjects” value ([3]; through Week 48) was 2. For the same compound, the “Fibrinogen decreased, worst Grade 4, n subjects” value ([3]; through Week 48) was 0, the “Hemoglobin decreased (Grade 3 or 4), n subjects” value ([3]; through Week 48) was 1 and the “Hemoglobin decreased, worst Grade 3, n subjects” value ([3]; through Week 48) was 0. For the same compound, the “Hemoglobin decreased, worst Grade 4, n subjects” value ([3]; through Week 48) was 1, the “Neutrophils decreased (Grade 3 or 4), n subjects” value ([3]; through Week 48) was 2 and the “Neutrophils decreased, worst Grade 3, n subjects” value ([3]; through Week 48) was 2. The “Neutrophils decreased, worst Grade 4, n subjects” value ([3]; through Week 48) was 0 and the “Phosphate decreased (Grade 3 or 4), n subjects” value ([3]; through Week 48) was 4.
